Measurements from article PMC9016025, “Translational imaging of the fibroblast activation protein (FAP) using the new ligand [^68Ga]Ga-OncoFAP-DOTAGA” (European Journal of Nuclear Medicine and Molecular Imaging, 2021).
Like-named read-outs stand apart in the source and are kept apart here.

Columns and labels:
[1] = test system: patients with breast cancer; parameters: method as in PMID 34636633; conditions: previously published patient sample, cited from earlier work
[2] = test system: subcutaneous HT1080 (FAP−) and HT1080-hFAP (FAP+) tumors; assay: Gamma counting biodistribution in tumor-bearing mice; type: in vivo, mouse
Method: For tumor-xenograft models, female NMRI nu/nu mice (Janvier, France), 8–9 weeks old, were housed at a constant temperature (22 °C) and relative humidity (40–55%) under a regular light/dark schedule. Food and water were available ad libitum.
Tumor cells (10^6 cells in 50 μL saline) were implanted subcutaneously in the shoulders of NMRI mice with HT1080 wildtype (FAP^−) in one shoulder and with stably transfected human FAP-expressing HT1080 cells (FAP^+) in the contralateral shoulder. Cells were kindly provided by U. Haberkorn, University of Heidelberg. At day 11 after implantation, mice received whole-body PET/MRI (1 T Mediso nanoScan) imaging with list mode PET for 60 min and additional non-contrast-enhanced anatomic, coronal T1-weighted MRI, followed by late static PET/MRI imaging 180 min p.i. Either ^68Ga-OncoFAP or ^68Ga-FAPI-46 (n = 6 each) was injected into the tail vein with a syringe pump at 1000 μL/min in a volume of 100 μL 30 s after the start of PET. At the next day (day 12 after implantation), the same mice were injected with the respective other FAP-tracer and received identical dynamic PET/MRI for 60 min. […] All involved measuring hardware (dose calibrator ISOMED 2010, automatic γ-counter PERKIN ELMER WALAC 2480, Twilite coincidence detector Swisstrace, PET/MRI) were cross-calibrated for ^68Ga. Overall, 3 scans were rejected, because of extravasation (day 11 OncoFAP), inability of i.v. access (day 12 FAPI-46), and insufficient radioactivity (day 12 FAPI-46), respectively. The resulting injected amounts of radioactivity for the remaining 11 ^68Ga-OncoFAP scans and 10 ^68Ga-FAPI-46 scans were 19.2 ± 4.4 MBq and 18.2 ± 4.8 MBq, respectively.

## CN(CCCN1CCN(C(=O)CN2CCN(CC(=O)[O-])CCN(CC(=O)[O-])CCN(CC(=O)[O-])CC2)CC1)c1ccc2nccc(C(=O)NCC(=O)N3CC(F)(F)C[C@H]3C#N)c2c1.[68Ga+3] [^68Ga-FAPI-46, [^68Ga]Ga-FAPI-46]
[1]
  Blood (prone SUVmean): 1.7 ± 0.2
  Blood (supine SUVmean): 1.3 ± 0.3
  Bone (supine SUVmean): 0.4 ± 0.1
  Breast cancer LN metastasis (supine SUVmax): 12.2 ± 6.2 (n = 13)
  Distant metastases any cancer (supine SUVmax): 12.3 ± 0.2 (n = 2)
  Kidney (supine SUVmean): 1.5 ± 0.4
  Liver (supine SUVmean): 0.9 ± 0.3
  Muscle (supine SUVmean): 1.1 ± 0.2
  Pancreas (supine SUVmean): 1.1 ± 0.4
  Primary breast cancer (prone SUVmax): 14.0 ± 5.7 (n = 17)
  Spleen (supine SUVmean): 1.1 ± 0.8
  Uterus (supine SUVmax): 11.6 ± 4.5 (n = 18)
[1]; listed as FAPI-46
  Uterus (supine SUVmax): 11.6 ± 4.5
[2]; gamma counting 1 h p.i.
  organ-to-blood ratio brain: 0.06 ± 0.01
  organ-to-blood ratio heart: 0.36 ± 0.04
  organ-to-blood ratio kidney: 11.58 ± 8.84
  organ-to-blood ratio liver: 0.70 ± 0.23
  organ-to-blood ratio lung: 1.84 ± 1.04
  organ-to-blood ratio muscle: 0.31 ± 0.11
  organ-to-blood ratio spleen: 0.43 ± 0.06
  organ-to-blood ratio tumor FAP+ (tumor-to-blood ratio): 1.98 ± 0.92
  organ-to-blood ratio tumor FAP-: 0.55 ± 0.08
  uptake blood: 0.69 ± 0.15 % ID/g
  uptake heart: 0.25 ± 0.07 % ID/g
  uptake kidney: 8.58 ± 7.52 % ID/g
  uptake liver: 0.46 ± 0.06 % ID/g
  uptake lung: 1.17 ± 0.43 % ID/g
  uptake muscle: 0.21 ± 0.07 % ID/g
  uptake plasma: 1.02 ± 0.30 % ID/g
  uptake spleen: 0.29 ± 0.05 % ID/g
  uptake tumor FAP+: 1.28 ± 0.40 % ID/g
  uptake tumor FAP-: 0.38 ± 0.12 % ID/g
  uptake urine: 525.55 ± 279.13 % ID/g
[2]; gamma counting 3 h p.i.
  organ-to-blood ratio brain: 0.15 ± 0.10
  organ-to-blood ratio heart: 0.51 ± 0.23
  organ-to-blood ratio kidney: 10.39 ± 5.81
  organ-to-blood ratio liver: 1.73 ± 1.28
  organ-to-blood ratio lung: 2.27 ± 1.98
  organ-to-blood ratio muscle: 0.38 ± 0.26
  organ-to-blood ratio spleen: 0.78 ± 0.47
  organ-to-blood ratio tumor FAP+ (tumor-to-blood ratio): 28.62 ± 17.69
  organ-to-blood ratio tumor FAP-: 1.15 ± 0.67
  uptake blood: 0.22 ± 0.31 % ID/g
  uptake brain: 0.01 ± 0.00 % ID/g
  uptake heart: 0.05 ± 0.02 % ID/g
  uptake kidney: 0.98 ± 0.60 % ID/g
  uptake liver: 0.14 ± 0.03 % ID/g
  uptake lung: 0.17 ± 0.06 % ID/g
  uptake muscle: 0.04 ± 0.02 % ID/g
  uptake plasma: 0.38 ± 0.53 % ID/g
  uptake spleen: 0.07 ± 0.02 % ID/g
  uptake tumor FAP+: 2.64 ± 0.60 % ID/g
  uptake tumor FAP-: 0.11 ± 0.03 % ID/g
